{"source": "patent US10376520B2", "about": "“Methods for the treatment of cardiovascular disorders” (Galapagos NV, priority 2015, dated 2019)", "system": "RA patients", "assay": "Disease Activity Score 28 (DAS28(CRP)), Study 1", "format": "in vivo, human", "description": "As used herein, the term ‘DAS28(CRP)’ refers to a clinical scoring ranging from 2.0 to 10.0 to measure the disease status at a given point in time, and thereby follow the progress and improvement of rheumatoid arthritis in a patient, and includes a 28 tender and swollen joint count, CRP measurement from blood analysis, and a general health assessment on a visual analog scale. A DAS28(CRP) value below 2.6 is indicative of remission, A DAS28(CRP) between 2.6 and 3.2 is indicative of low disease activity, between 3.2 and 5.1 is indicative of moderate disease activity, whereas a DAS28(CRP) above 5.1 is linked to high disease activity. (Wells et al., 2008)\nDouble-blind, placebo-controlled add on study in subjects with moderately to severely active RA who have an inadequate response to methotrexate (MTX) (oral or parenteral).\nCompound 1 (dosed as a [Compound 1:HCl:3H2O]) is dosed for twelve weeks once daily (q.d.) (50 mg, 100 mg or 200 mg) or twice daily (b.i.d.) (25 mg, 50 mg or 100 mg); or placebo.\nAt Week 12, the subjects on placebo who have not achieved 20% improvement in swollen joint count (SJC66) and tender joint count (TJC68) are re-randomized automatically to receive Compound 1 (dosed as a [Compound 1:HCl:3H2O]) either at 100 mg q.d. or 50 mg b.i.d. doses in a blinded fashion; subjects on 50 mg q.d. who have not achieved 20% improvement in SJC66 and TJC68 will be assigned to 100 mg q.d. and subjects on 25 mg b.i.d. that have not achieved a 20% improvement in SJC66 and TJC68 will be assigned to 50 mg b.i.d. Subjects who switch treatment at week 12 are handled as if they discontinued at week 12 for the purpose of statistical analysis, whereas subjects in the other groups will maintain their randomized treatment until Week 24.\nThe (DAS28(CRP)) is a system developed and validated by the European League Against Rheumatism (EULAR) to measure the progress and improvement of rheumatoid arthritis and has been extensively validated (Wells et al., 2008). The DAS28(CRP) scoring includes a 28 tender and swollen joint count, CRP measurement from blood analysis, and a general health assessment on a visual analog scale (Fransen et al., 2003).\nDAS28(CRP) values range from 2.0 to 10.0, and more particularly reflect the following status: • Remission: DAS28(CRP)≤2.6 • Low Disease activity: 2.6<DAS28(CRP)≤3.2 • Moderate Disease Activity: 3.2<DAS28(CRP)≤5.1 • High Disease Activity: DAS28(CRP)>5.1\nIn practice, the DAS28(CRP) measurement involves the evaluation 28 different joints including in the measurement (proximal interphalangeal joints (10 joints), metacarpophalangeal joints (10), wrists (2), elbows (2), shoulders (2), and knees (2)). When looking at these joints, both the number of joints with tenderness upon touching and swelling are counted.\nFirstly, the patient is asked to make a vertical mark on a 100 mm Visual Analog Scale (VAS) corresponding to their general health or global disease activity. Using an electronic touchscreen, the mark is measured from the left-hand side in mm to obtain the VAS value, which is used in the formula below.\nSecondly, a swollen and tender joint examination is then performed on the patient. The swollen and tender joints are recorded. From this examination are obtained the total amount of swollen joints (SJC) and the total amount of tender joints (TJC), which are used in the formula below.\nThirdly, C-reactive protein (CRP) levels (in mg/dL) are measured.\nFinally, the values obtained above (VAS, JTC28, SJC28, and CRP) are computed into the following Formula to obtain the DAS28(CRP) score.\nThe number of subjects (N) provided in each groups corresponds to the number of patients starting the study in each group, and the DAS28 (CRP) data reported below corresponds to the responding patients continuing for the entire 24 weeks on their initial treatment course."}
{"smiles": "O=C(Nc1nc2cccc(-c3ccc(CN4CCS(=O)(=O)CC4)cc3)n2n1)C1CC1", "note": "[Compound 1, cyclopropanecarboxylic acid {5-[4-(1,1-dioxo-thiomorpholin-4-ylmethyl)-phenyl]-[1,2,4]triazolo[1,5-a]pyridin-2yl}-amide]", "values": [{"measurement": "DAS28(CRP) mean CFB (LOCF) - 24 weeks results", "setting": "50 mg q.d., Week 24", "value": "−1.98"}, {"measurement": "DAS28(CRP) mean CFB (LOCF) - 12 weeks results", "setting": "50 mg q.d., week 1", "value": "−0.65"}, {"measurement": "DAS28(CRP) mean CFB (LOCF) - 24 weeks results", "setting": "50 mg q.d., week 1", "value": "−0.65"}, {"measurement": "DAS28(CRP) mean CFB (LOCF) - 12 weeks results", "setting": "50 mg q.d., week 2", "value": "−0.94"}, {"measurement": "DAS28(CRP) mean CFB (LOCF) - 24 weeks results", "setting": "50 mg q.d., week 2", "value": "−0.94"}, {"measurement": "DAS28(CRP) mean CFB (LOCF) - 24 weeks results", "setting": "50 mg q.d., week 4", "value": "−1.28"}, {"measurement": "DAS28(CRP) mean CFB (LOCF) - 12 weeks results", "setting": "50 mg q.d., week 12", "value": "−1.75"}, {"measurement": "DAS28(CRP) mean CFB (LOCF) - 24 weeks results", "setting": "50 mg q.d., week 12", "value": "−1.75"}, {"measurement": "DAS28(CRP) mean CFB (LOCF) - 24 weeks results", "setting": "100 mg q.d., week 1", "value": "−1.00"}, {"measurement": "DAS28(CRP) mean CFB (LOCF) - 12 weeks results", "setting": "100 mg q.d., week 2", "value": "−1.50"}, {"measurement": "DAS28(CRP) mean CFB (LOCF) - 24 weeks results", "setting": "100 mg q.d., week 16", "value": "−2.51"}, {"measurement": "DAS28(CRP) mean CFB (LOCF) - 24 weeks results", "setting": "100 mg q.d., week 24", "value": "−2.70"}, {"measurement": "% patients reaching low disease activity and/or remission at week 24 (LOCF)", "setting": "200 mg q.d.", "value": 52, "unit": "%"}, {"measurement": "DAS28(CRP) mean CFB (LOCF) - 24 weeks results", "setting": "200 mg q.d., week 1", "value": "−1.17"}, {"measurement": "DAS28(CRP) mean CFB (LOCF) - 24 weeks results", "setting": "200 mg q.d., week 2", "value": "−1.52"}, {"measurement": "DAS28(CRP) mean CFB (LOCF) - 12 weeks results", "setting": "200 mg q.d., week 8", "value": "−2.30"}, {"measurement": "DAS28(CRP) mean CFB (LOCF) - 24 weeks results", "setting": "200 mg q.d., week 16", "value": "−2.70"}, {"measurement": "DAS28(CRP) mean CFB (LOCF) - 24 weeks results", "setting": "200 mg q.d., week 24", "value": "−2.80"}, {"measurement": "% patients reaching low disease activity and/or remission at week 24 (LOCF)", "setting": "2 × 25 mg b.i.d.", "value": 49, "unit": "%"}, {"measurement": "DAS28(CRP) mean CFB (LOCF) - 12 weeks results", "setting": "2 × 25 mg b.i.d., Week 1", "value": "−0.68"}, {"measurement": "DAS28(CRP) mean CFB (LOCF) - 24 weeks results", "setting": "2 × 25 mg b.i.d., Week 1", "value": "−0.68"}, {"measurement": "DAS28(CRP) mean CFB (LOCF) - 12 weeks results", "setting": "2 × 25 mg b.i.d., Week 4", "value": "−1.45"}, {"measurement": "DAS28(CRP) mean CFB (LOCF) - 24 weeks results", "setting": "2 × 25 mg b.i.d., Week 4", "value": "−1.45"}, {"measurement": "DAS28(CRP) mean CFB (LOCF) - 12 weeks results", "setting": "2 × 25 mg b.i.d., Week 8", "value": "−1.82"}, {"measurement": "DAS28(CRP) mean CFB (LOCF) - 24 weeks results", "setting": "2 × 25 mg b.i.d., Week 8", "value": "−1.82"}, {"measurement": "DAS28(CRP) mean CFB (LOCF) - 12 weeks results", "setting": "2 × 50 mg b.i.d., Week 1", "value": "−0.84"}, {"measurement": "DAS28(CRP) mean CFB (LOCF) - 24 weeks results", "setting": "2 × 50 mg b.i.d., Week 1", "value": "−0.84"}, {"measurement": "DAS28(CRP) mean CFB (LOCF) - 12 weeks results", "setting": "2 × 50 mg b.i.d., Week 12", "value": "−2.10"}, {"measurement": "DAS28(CRP) mean CFB (LOCF) - 24 weeks results", "setting": "2 × 50 mg b.i.d., Week 12", "value": "−2.10"}, {"measurement": "DAS28(CRP) mean CFB (LOCF) - 24 weeks results", "setting": "2 × 50 mg b.i.d., Week 20", "value": "−2.40"}, {"measurement": "DAS28(CRP) mean CFB (LOCF) - 24 weeks results", "setting": "2 × 50 mg b.i.d., Week 24", "value": "−2.40"}, {"measurement": "DAS28(CRP) mean CFB (LOCF) - 12 weeks results", "setting": "2 × 100 mg b.i.d., Week 8", "value": "−2.72"}, {"measurement": "DAS28(CRP) mean CFB (LOCF) - 24 weeks results", "setting": "2 × 100 mg b.i.d., Week 8", "value": "−2.72"}]}
